Laboratory results as given in US10201531B2, “Indazolyl-oxo-isothiazole compounds” (MOCHIDA PHARMACEUTICAL CO., LTD., priority 2015, dated 2019).

Tested on: Nrf2
Assay: Evaluation of Nrf2 activation ability (Nrf2d-LacZ / Keap1 HEK293 reporter, Beta-Glo luminescence)
Type: cell-based, human
Description: HEK293 cells constantly expressing Nrf2d-LacZ (human Nrf2 degron region fused to LacZ; Hirotsu et al, Genes to Cell, Vol. 16, pp. 406-415 (2011)) and human Keap1 were seeded 7,000 cells/27 μl/well on 384-well plates (Corning 384 Well Flat Clear Bottom White Polystyrene TC-Treated Microplates, Cat. #3707), and cultured overnight at 5% CO2, 37° C. in DMEM medium containing 10% FBS, 100 U/mL penicillin and 100 μg/mL streptomycin. 3 μL/well of a 0.1% DMSO solution of the compound of the invention was added to the cells, which were then cultured for 3 hours at 5% CO2, 37° C. Beta-Glo® reagent (Promega, Beta-Glo Assay System, Cat. #E4740) was added 15 μL/well and incubated for 1 hour at room temperature, and luminescence intensity was measured with a luminometer. Using CDDO-Im as a standard, Nrf2 activation ability was calculated given 100% as the luminescence under stimulus with 100 nM CDDO-Im.

[1] = rated A/B/C, Pharmacological Test Example 1
[2] = Pharmacological Test Example 1, rated A/B/C

Compound | EC50 [1] | EC50 [2]
Cn1c(=O)n(-c2cnn(-c3cc(O)n[s+]3[O-])c2)c2ccccc21 (stereo not drawn) [Example 419] |  | 1000 to 5000 nM
CCOC(=O)C1CC=C(c2c(C)nn(-c3cc(O)n[s+]3[O-])c2C)CC1 (stereo not drawn) [Example 317] |  | 1000 to 5000 nM
[O-][s+]1nc(O)cc1-n1ncc2c1CCN(Cc1ccccc1)C2 (stereo not drawn) [Example 252] | 1000 to 5000 nM | 
[O-][s+]1nc(O)cc1-n1ncc2cccnc21 (stereo not drawn) [Example 238] | 1000 to 5000 nM | 
CC(C)(C)OC(=O)N1CCc2cn(-c3cc(O)n[s+]3[O-])nc2CC1 (stereo not drawn) [Example 244] | 1000 to 5000 nM | 
O=C(c1ccccc1)N1CCC(c2ccc3c(cnn3-c3cc(O)n[s+]3[O-])c2)CC1 (stereo not drawn) [Example 168] | 5000 to 10000 nM | 
[O-][s+]1nc(O)cc1-n1cc(C2Cc3ccccc3C2)cn1 (stereo not drawn) [Example 397] |  | < 1000 nM
COc1nc(Cl)ccc1-c1cnn(-c2cc(O)n[s+]2[O-])c1 (stereo not drawn) [Example 440] |  | < 1000 nM
[O-][s+]1nc(O)cc1-n1cc2c(n1)CN(Cc1cccc(Oc3ccccc3)c1)C2 (stereo not drawn) [Example 277] | 1000 to 5000 nM | 
N#Cc1ccc(Oc2ccc(-c3cnn(-c4cc(O)n[s+]4[O-])c3)cc2)cc1 (stereo not drawn) [Example 362] |  | < 1000 nM
[O-][s+]1nc(O)cc1-n1cc(-c2cccc(C(F)(F)F)c2)cn1 (stereo not drawn) [Example 367] |  | < 1000 nM
O=S(=O)(c1cccc(COc2ccc(-c3cnn(-c4cc(O)n[s+]4[O-])c3)cc2)c1)N1CCCCC1 (stereo not drawn) [Example 366] |  | 1000 to 5000 nM
[O-][s+]1nc(O)cc1-n1cc(-c2ccc(OCc3cccc(C(F)(F)F)c3)cc2)cn1 (stereo not drawn) [Example 375] |  | 1000 to 5000 nM
Cc1cnc(-c2cnn(-c3cc(O)n[s+]3[O-])c2)cn1 (stereo not drawn) [Example 413] |  | 1000 to 5000 nM
[O-][s+]1nc(O)cc1-n1cc(-c2ccc3c(c2)OCCO3)cn1 (stereo not drawn) [Example 346] |  | 1000 to 5000 nM
[O-][s+]1nc(O)cc1-n1cc(-c2ccc3cccnc3c2)cn1 (stereo not drawn) [Example 383] |  | < 1000 nM
[O-][s+]1nc(O)cc1-n1cc(CCOc2cccnc2)cn1 (stereo not drawn) [Example 412] |  | 1000 to 5000 nM
[O-][s+]1nc(O)cc1-n1ncc2c(-c3ccccc3)cccc21 (stereo not drawn) [Example 79] | 1000 to 5000 nM | 
[O-][s+]1nc(O)cc1-n1cc(C2=Cc3ccccc3CC2)cn1 (stereo not drawn) [Example 381] |  | < 1000 nM
[O-][s+]1nc(O)cc1-n1cc(-c2ccc3cnccc3c2)cn1 (stereo not drawn) [Example 356] |  | 1000 to 5000 nM
COc1cc(-c2cnc3c(c2)OCCN3C)c2cnn(-c3cc(O)n[s+]3[O-])c2c1 (stereo not drawn) [Example 174] | 1000 to 5000 nM | 
CN1CCOc2cc(-c3cc4cnn(-c5cc(O)n[s+]5[O-])c4cn3)cnc21 (single isomer, unassigned) [Example 243] | < 1000 nM | 
[O-][s+]1nc(O)cc1-n1cc(-c2ccc3ccncc3c2)cn1 (stereo not drawn) [Example 351] |  | 1000 to 5000 nM
[O-][s+]1nc(O)cc1-n1ncc2cc(-c3cncc(N4CCCC4)n3)ccc21 (stereo not drawn) [Example 141] | < 1000 nM | 
[O-][s+]1nc(O)cc1-n1cc(-c2cnc(C(F)(F)F)cn2)cn1 (stereo not drawn) [Example 415] |  | 1000 to 5000 nM

Compound | EC50 [1] | EC50 [2]
COc1ccc(CN2CCc3c(cnn3-c3cc(O)n[s+]3[O-])C2)cn1 (stereo not drawn) [Example 261] | 1000 to 5000 nM | 
[O-][s+]1nc(O)cc1-n1cc(-c2ccccc2)cn1 (stereo not drawn) [Example 363] |  | < 1000 nM
CN1C(=O)C(C)(C)c2cc(-c3cnn(-c4cc(O)n[s+]4[O-])c3)ccc21 (stereo not drawn) [Example 425] |  | 1000 to 5000 nM
[O-][s+]1nc(O)cc1-n1ncc2cc(-c3cccc(N4CCCC4)n3)ccc21 (stereo not drawn) [Example 138] | < 1000 nM | 
Cc1nn(-c2cc(O)n[s+]2[O-])c(C)c1-c1ccccc1 (stereo not drawn) [Example 311] | 5000 to 10000 nM | 
[O-][s+]1nc(O)cc1-n1ncc2ccc(C3=CCC(F)(F)CC3)cc21 (stereo not drawn) [Example 102] | 1000 to 5000 nM | 
CC(C)(C)OC(=O)N1CCc2c(c(I)nn2-c2cc(O)n[s+]2[O-])C1 (stereo not drawn) [Example 251] | 5000 to 10000 nM | 
[O-][s+]1nc(O)cc1-n1cc(-c2ccc(C3CC3)nc2)cn1 (stereo not drawn) [Example 323] |  | < 1000 nM
[O-][s+]1nc(O)cc1-n1cc(CCOc2ccccc2)cn1 (stereo not drawn) [Example 329] |  | 1000 to 5000 nM
COc1cc(Br)cc2c1cnn2-c1cc(O)n[s+]1[O-] (stereo not drawn) [Example 177] | < 1000 nM | 
[O-][s+]1nc(O)cc1-n1cc(-c2ccc(Oc3ccc(C(F)(F)F)cc3Cl)cc2)cn1 (stereo not drawn) [Example 374] |  | 1000 to 5000 nM
COc1ccc(-c2cnn(-c3cc(O)n[s+]3[O-])c2)cn1 (stereo not drawn) [Example 392] |  | < 1000 nM
[O-][s+]1nc(O)cc1-n1cc(-c2cccc3cccnc23)cn1 (stereo not drawn) [Example 344] |  | < 1000 nM
[O-][s+]1nc(O)cc1-n1cc(-c2ccc(N3CCCCC3)nc2)cn1 (stereo not drawn) [Example 321] |  | 1000 to 5000 nM
[O-][s+]1nc(O)cc1-n1ncc2ccc(C3=CCOCC3)cc21 (stereo not drawn) [Example 103] | 1000 to 5000 nM | 
[O-][s+]1nc(O)cc1-n1cc(-c2ccccn2)cn1 (stereo not drawn) [Example 386] |  | 1000 to 5000 nM
Cc1cc2cnn(-c3cc(O)n[s+]3[O-])c2cn1 (stereo not drawn) [Example 229] | 1000 to 5000 nM | 
[O-][s+]1nc(O)cc1-n1cc(-c2cccc3cccnc23)cn1 (stereo not drawn) [Example 382] |  | < 1000 nM
[O-][s+]1nc(O)cc1-n1ncc2ccccc21 (stereo not drawn) [Example 17] | 5000 to 10000 nM | 
[O-][s+]1nc(O)cc1-n1ncc2cc(Br)ncc21 (stereo not drawn) [Example 234] | 1000 to 5000 nM | 
[O-][s+]1nc(O)cc1-n1cc(-c2ccccc2Oc2ccccc2)cn1 (stereo not drawn) [Example 335] |  | 1000 to 5000 nM
[O-][s+]1nc(O)cc1-n1cc(-c2cnccn2)cn1 (stereo not drawn) [Example 428] |  | 5000 to 10000 nM
CC(C)(C)OC(=O)N1CCCc2nn(-c3cc(O)n[s+]3[O-])cc2C1 (stereo not drawn) [Example 250] | 1000 to 5000 nM | 
[O-][s+]1nc(O)cc1-n1ncc2cc(C3CC3)ccc21 (stereo not drawn) [Example 27] | 1000 to 5000 nM | 
N#Cc1ccc2c(cnn2-c2cc(O)n[s+]2[O-])c1 (stereo not drawn) [Example 19] | 1000 to 5000 nM | 

The remaining lines, values ahead:

EC50 [1] | EC50 [2] | Compound
< 1000 nM |  | [O-][s+]1nc(O)cc1-n1ncc2cc(-c3cccc(F)c3)ccc21 (stereo not drawn) [Example 84]
< 1000 nM |  | CC1COc2cc(-c3ccc4c(cnn4-c4cc(O)n[s+]4[O-])c3)cnc2N1 (stereo not drawn) [Example 10]
< 1000 nM |  | COc1ncc(-c2ccc3c(cnn3-c3cc(O)n[s+]3[O-])c2)cc1Cl (stereo not drawn) [Example 73]
< 1000 nM |  | CC1(C)CNc2ncc(-c3ccc4c(cnn4-c4cc(O)n[s+]4[O-])c3)cc2O1 (stereo not drawn) [Example 189]
1000 to 5000 nM |  | COc1ccc2c(cnn2-c2cc(O)n[s+]2[O-])c1 (stereo not drawn) [Example 24]
< 1000 nM |  | [O-][s+]1nc(O)cc1-n1ncc2cc(-c3cnc4c(c3)OCCN4CC3CCC3)ccc21 (stereo not drawn) [Example 162]
1000 to 5000 nM |  | [O-][s+]1nc(O)cc1-n1ncc2cc(-c3cnc4c(c3)OCCN4)ccc21 (stereo not drawn) [Example 152]
< 1000 nM |  | [O-][s+]1nc(O)cc1-n1ncc2cc(-c3cnn4cccnc34)ccc21 (stereo not drawn) [Example 225]
< 1000 nM |  | COc1cc(-c2ccc(N3CCCC3)nc2)c2cnn(-c3cc(O)n[s+]3[O-])c2c1 (stereo not drawn) [Example 175]
< 1000 nM |  | [O-][s+]1nc(O)cc1-n1ncc2cc(-c3cnc4c(c3)OCCO4)ccc21 (stereo not drawn) [Example 220]
< 1000 nM |  | COc1cc(-c2ccc3c(cnn3-c3cc(O)n[s+]3[O-])c2)ccn1 (stereo not drawn) [Example 3, 5-[5-(2-methoxypyridin-4-yl)indazol-1-yl]-1-oxo-1,2-thiazol-3-ol]
< 1000 nM |  | COc1cc(-c2ccc(C3CC3)nc2)cc2c1cnn2-c1cc(O)n[s+]1[O-] (stereo not drawn) [Example 203]
< 1000 nM |  | [O-][s+]1nc(O)cc1-n1ncc2cc(-c3ccc(N4CCC5(COC5)C4)nc3)ccc21 (stereo not drawn) [Example 161]
< 1000 nM |  | [O-][s+]1nc(O)cc1-n1ncc2cc(-c3ccccc3Cl)ccc21 (stereo not drawn) [Example 40]
< 1000 nM |  | COc1ncccc1-c1ccc2c(cnn2-c2cc(O)n[s+]2[O-])c1 (stereo not drawn) [Example 124]
< 1000 nM |  | CN1CCOc2cc(-c3ccc4c(cnn4-c4cc(O)n[s+]4[O-])c3)cnc21 (stereo not drawn) [Example 5, 5-[5-(4-methyl-2,3-dihydropyrido[3,2-b][1, 4]oxazin-7-yl)indazol-1-yl]-1-oxo-1,2-thiazol-3-ol]
< 1000 nM |  | [O-][s+]1nc(O)cc1-n1ncc2cc(-c3cc4c(cn3)NCCO4)ccc21 (stereo not drawn) [Example 219]
< 1000 nM |  | [O-][s+]1nc(O)cc1-n1ncc2cc(-c3cccc(C(F)(F)F)n3)ccc21 (stereo not drawn) [Example 130]
< 1000 nM |  | CC(C)N1CCOc2cc(-c3ccc4c(cnn4-c4cc(O)n[s+]4[O-])c3)cnc21 (stereo not drawn) [Example 8]
< 1000 nM |  | [O-][s+]1nc(O)cc1-n1ncc2cc(-c3cnc4c(c3)OCCCCN4)ccc21 (stereo not drawn) [Example 206]
< 1000 nM |  | CN1CCc2cc(-c3ccc4c(cnn4-c4cc(O)n[s+]4[O-])c3)cnc21 (stereo not drawn) [Example 158]
< 1000 nM |  | CCN1CCOc2cc(-c3ccc4c(cnn4-c4cc(O)n[s+]4[O-])c3)cnc21 (stereo not drawn) [Example 143]
